Results published in article PMC10436550, “Subacute toxicity evaluations of LPM3480392 in rats, a full µ-opioid receptor biased agonist” (Frontiers in Pharmacology, 2023).

Experiments:
[1] = Food consumption, 4-week subacute toxicity study; type: in vivo, Sprague Dawley (SD) rats
Description: Food consumption of all surviving animals was recorded twice a week during the dosing phase and then once a week in last 2 weeks of recovery phase.

µ-opioid receptor (MOR) = tested on: µ-opioid receptor (MOR); design: method as in Yang et al., 2022; settings: ref Yang et al., 2022, cited from earlier work
Sprague Dawley (SD) rats = experiment: Mortality and clinical observation, 4-week subacute toxicity study; type: in vivo, rat; settings: for Mild to severe increased activity, starting day: dosing phase
Description: For all surviving animals, a morning and an afternoon observation every day were conducted for the moribundity and death. Daily observation was carried out once within 1 h after each dosing in dosing phase, and at least once daily in recovery phase, including mental status, food and water consumption, hair, discharge, mortality and other toxic reactions. Detailed observation was performed once every week, including appearance, movement, mental status, gland secretions, skin and mucosa color, respiration, genitals, mortality and other toxic reactions.
The animals found dead were recorded for the observation or death time, and weighed followed by a complete postmortem examination to explore the cause of death. All required organs and tissue as listed in the Section 2.11 and other tissues with gross lesions were performed with histopathology examination. Animals found dead which could not be examined immediately were temporarily refrigerated.

rats = experiment: Spontaneous withdrawal test in rats; type: in vivo, rat; settings: iv 0.3 to 1.8 mg/kg/day for 30 consecutive days; data not shown
Description: However, we have conducted the spontaneous withdrawal test in rats in 2019 at WCFP (data not shown in this manuscript). The rats were intravenously injected with LPM3480392 injection from 0.3 to 1.8 mg/kg/day for 30 consecutive days. […] There were no apparent abnormalities in body weights of female rats in LPM3480392 injection groups during dosing and recovery phases. The effects of LPM3480392 on body weight in males or females in the spontaneous withdrawal test are similar to those in the subacute toxicity study in rats.

[2] = female rats, 0.6 mg/kg/day, Day 3
[3] = female rats, 0.6 mg/kg/day, Day 7
[4] = female rats, 0.6 mg/kg/day, Day 10
[5] = female rats, 0.6 mg/kg/day, Day 14
[6] = female rats, 0.6 mg/kg/day, Day 17
[7] = female rats, 0.6 mg/kg/day, Day 21
[8] = female rats, 0.6 mg/kg/day, Day 24
[9] = female rats, 0.6 mg/kg/day, Day 28
[10] = female rats, 0.6 mg/kg/day, Recovery day 20
[11] = female rats, 0.6 mg/kg/day, Recovery day 27
[12] = female rats, 1.2 mg/kg/day, Day 3
[13] = female rats, 1.2 mg/kg/day, Day 7
[14] = female rats, 1.2 mg/kg/day, Day 10
[15] = female rats, 1.2 mg/kg/day, Day 14
[16] = female rats, 1.2 mg/kg/day, Day 17
[17] = female rats, 1.2 mg/kg/day, Day 21
[18] = female rats, 1.2 mg/kg/day, Day 24
[19] = female rats, 1.2 mg/kg/day, Day 28
[20] = female rats, 1.2 mg/kg/day, Recovery day 20
[21] = female rats, 1.2 mg/kg/day, Recovery day 27
[22] = female rats, 2.4 mg/kg/day, Day 3
[23] = female rats, 2.4 mg/kg/day, Day 7
[24] = female rats, 2.4 mg/kg/day, Day 10
[25] = female rats, 2.4 mg/kg/day, Day 14
[26] = female rats, 2.4 mg/kg/day, Day 17
[27] = female rats, 2.4 mg/kg/day, Day 21
[28] = female rats, 2.4 mg/kg/day, Day 24
[29] = female rats, 2.4 mg/kg/day, Day 28
[30] = female rats, 2.4 mg/kg/day, Recovery day 20
[31] = female rats, 2.4 mg/kg/day, Recovery day 27
[32] = male rats, 0.6 mg/kg/day, Day 3
[33] = male rats, 0.6 mg/kg/day, Day 7
[34] = male rats, 0.6 mg/kg/day, Day 10
[35] = male rats, 0.6 mg/kg/day, Day 14
[36] = male rats, 0.6 mg/kg/day, Day 17
[37] = male rats, 0.6 mg/kg/day, Day 21
[38] = male rats, 0.6 mg/kg/day, Day 24
[39] = male rats, 0.6 mg/kg/day, Day 28
[40] = male rats, 0.6 mg/kg/day, Recovery day 20
[41] = male rats, 0.6 mg/kg/day, Recovery day 27
[42] = male rats, 1.2 mg/kg/day, Day 3
[43] = male rats, 1.2 mg/kg/day, Day 7
[44] = male rats, 1.2 mg/kg/day, Day 10
[45] = male rats, 1.2 mg/kg/day, Day 14
[46] = male rats, 1.2 mg/kg/day, Day 17
[47] = male rats, 1.2 mg/kg/day, Day 21
[48] = male rats, 1.2 mg/kg/day, Day 24
[49] = male rats, 1.2 mg/kg/day, Day 28
[50] = male rats, 1.2 mg/kg/day, Recovery day 20
[51] = male rats, 1.2 mg/kg/day, Recovery day 27
[52] = male rats, 2.4 mg/kg/day, Day 3
[53] = male rats, 2.4 mg/kg/day, Day 7
[54] = male rats, 2.4 mg/kg/day, Day 10
[55] = male rats, 2.4 mg/kg/day, Day 14
[56] = male rats, 2.4 mg/kg/day, Day 17
[57] = male rats, 2.4 mg/kg/day, Day 21
[58] = male rats, 2.4 mg/kg/day, Day 24
[59] = male rats, 2.4 mg/kg/day, Day 28
[60] = male rats, 2.4 mg/kg/day, Recovery day 20
[61] = male rats, 2.4 mg/kg/day, Recovery day 27

Fc1ccc([C@]2(CCNCc3cccc(Cl)c3)CCO[C@]3(CCOC3)C2)nc1 [LPM3480392]
Food consumption [1, 2]: 12.6 ± 1.3 g/animal/cage/day
Food consumption change rate [1, 2]: −14.86%
Food consumption [1, 3]: 15.4 ± 1.1 g/animal/cage/day
Food consumption change rate [1, 3]: 1.32%
Food consumption [1, 4]: 15.9 ± 1.1 g/animal/cage/day
Food consumption change rate [1, 4]: −3.05%
Food consumption [1, 5]: 16.0 ± 0.5 g/animal/cage/day
Food consumption change rate [1, 5]: −15.79%
Food consumption [1, 6]: 15.8 ± 1.0 g/animal/cage/day
Food consumption change rate [1, 6]: 9.72%
Food consumption [1, 7]: 15.7 ± 0.7 g/animal/cage/day
Food consumption change rate [1, 7]: −1.88%
Food consumption [1, 8]: 14.9 ± 1.4 g/animal/cage/day
Food consumption change rate [1, 8]: −6.29%
Food consumption [1, 9]: 16.4 ± 0.9 g/animal/cage/day
Food consumption change rate [1, 9]: −0.61%
Food consumption [1, 10]: 15.9 g/animal/cage/day
Food consumption change rate [1, 10]: −5.36%
Food consumption [1, 11]: 13.3 g/animal/cage/day
Food consumption change rate [1, 11]: −15.82%
Food consumption [1, 12]: 14.9 ± 1.1 g/animal/cage/day
Food consumption change rate [1, 12]: 0.68%
Food consumption [1, 13]: 15.0 ± 1.3 g/animal/cage/day
Food consumption change rate [1, 13]: −1.32%
Food consumption [1, 14]: 15.2 ± 0.6 g/animal/cage/day
Food consumption change rate [1, 14]: −7.32%
Food consumption [1, 15]: 15.7 ± 0.9 g/animal/cage/day
Food consumption change rate [1, 15]: −17.37%
Food consumption [1, 16]: 16.6 ± 0.2 g/animal/cage/day
Food consumption change rate [1, 16]: 15.28%
Food consumption [1, 17]: 15.8 ± 1.4 g/animal/cage/day
Food consumption change rate [1, 17]: −1.25%
Food consumption [1, 18]: 16.6 ± 1.7 g/animal/cage/day
Food consumption change rate [1, 18]: 4.40%
Food consumption [1, 19]: 16.4 ± 0.8 g/animal/cage/day
Food consumption change rate [1, 19]: −0.61%
Food consumption [1, 20]: 15.1 g/animal/cage/day
Food consumption change rate [1, 20]: −10.12%
Food consumption [1, 21]: 16.7 g/animal/cage/day
Food consumption change rate [1, 21]: 5.70%
Food consumption [1, 22]: 13.0 ± 2.1 g/animal/cage/day
Food consumption change rate [1, 22]: −12.16%
Food consumption [1, 23]: 15.8 ± 1.9 g/animal/cage/day
Food consumption change rate [1, 23]: 3.95%
Food consumption [1, 24]: 15.1 ± 0.8 g/animal/cage/day
Food consumption change rate [1, 24]: −7.93%
Food consumption [1, 25]: 17.5 ± 1.0 g/animal/cage/day
Food consumption change rate [1, 25]: −7.89%
Food consumption [1, 26]: 15.1 ± 1.0 g/animal/cage/day
Food consumption change rate [1, 26]: 4.86%
Food consumption [1, 27]: 17.5 ± 1.3 g/animal/cage/day
Food consumption change rate [1, 27]: 9.38%
Food consumption [1, 28]: 15.6 ± 1.2 g/animal/cage/day
Food consumption change rate [1, 28]: −1.89%
Food consumption [1, 29]: 16.7 ± 0.8 g/animal/cage/day
Food consumption change rate [1, 29]: 1.21%
Food consumption [1, 30]: 16.4 g/animal/cage/day
Food consumption change rate [1, 30]: −2.38%
Food consumption [1, 31]: 15.0 g/animal/cage/day
Food consumption change rate [1, 31]: −5.06%
Food consumption [1, 32]: 19.7 ± 0.1 g/animal/cage/day
Food consumption change rate [1, 32]: −2.96%
Food consumption [1, 33]: 20.8 ± 0.6 g/animal/cage/day
Food consumption change rate [1, 33]: −8.37%
Food consumption [1, 34]: 23.0 ± 1.6 g/animal/cage/day
Food consumption change rate [1, 34]: −17.56%
Food consumption [1, 35]: 21.0 ± 1.3 g/animal/cage/day
Food consumption change rate [1, 35]: −17.32%
Food consumption [1, 36]: 21.1 ± 1.9 g/animal/cage/day
Food consumption change rate [1, 36]: −11.34%
Food consumption [1, 37]: 21.6 ± 0.8 g/animal/cage/day
Food consumption change rate [1, 37]: −9.24%
Food consumption [1, 38]: 20.6 ± 1.0 g/animal/cage/day
Food consumption change rate [1, 38]: −8.04%
Food consumption [1, 39]: 22.9 ± 1.2 g/animal/cage/day
Food consumption change rate [1, 39]: −5.76%
Food consumption [1, 40]: 25.2 g/animal/cage/day
Food consumption change rate [1, 40]: 0.40%
Food consumption [1, 41]: 22.3 g/animal/cage/day
Food consumption change rate [1, 41]: 0.90%
Food consumption [1, 42]: 19.2 ± 0.9 g/animal/cage/day
Food consumption change rate [1, 42]: −5.42%
Food consumption [1, 43]: 20.5 ± 0.7 g/animal/cage/day
Food consumption change rate [1, 43]: −9.69%
Food consumption [1, 44]: 20.4 ± 1.8 g/animal/cage/day
Food consumption change rate [1, 44]: −26.88%
Food consumption [1, 45]: 20.2 ± 0.7 g/animal/cage/day
Food consumption change rate [1, 45]: −20.47%
Food consumption [1, 46]: 20.5 ± 1.7 g/animal/cage/day
Food consumption change rate [1, 46]: −13.87%
Food consumption [1, 47]: 23.2 ± 1.2 g/animal/cage/day
Food consumption change rate [1, 47]: −2.52%
Food consumption [1, 48]: 22.2 ± 1.1 g/animal/cage/day
Food consumption change rate [1, 48]: −0.89%
Food consumption [1, 49]: 22.5 ± 1.3 g/animal/cage/day
Food consumption change rate [1, 49]: −7.41%
Food consumption [1, 50]: 24.5 g/animal/cage/day
Food consumption change rate [1, 50]: −2.39%
Food consumption [1, 51]: 22.6 g/animal/cage/day
Food consumption change rate [1, 51]: 2.26%
Food consumption [1, 52]: 17.8 ± 0.8 g/animal/cage/day
Food consumption change rate [1, 52]: −12.32%
Food consumption [1, 53]: 20.0 ± 2.3 g/animal/cage/day
Food consumption change rate [1, 53]: −11.89%
Food consumption [1, 54]: 20.1 ± 1.9 g/animal/cage/day
Food consumption change rate [1, 54]: −27.96%
Food consumption [1, 55]: 17.3 ± 5.2 g/animal/cage/day
Food consumption change rate [1, 55]: −31.89%
Food consumption [1, 56]: 20.1 ± 0.7 g/animal/cage/day
Food consumption change rate [1, 56]: −15.55%
Food consumption [1, 57]: 23.2 ± 1.1 g/animal/cage/day
Food consumption change rate [1, 57]: −2.52%
Food consumption [1, 58]: 22.1 ± 3.0 g/animal/cage/day
Food consumption change rate [1, 58]: −1.34%
Food consumption [1, 59]: 22.5 ± 1.9 g/animal/cage/day
Food consumption change rate [1, 59]: −7.41%
Food consumption [1, 60]: 24.0 g/animal/cage/day
Food consumption change rate [1, 60]: −4.38%
Food consumption [1, 61]: 23.8 g/animal/cage/day
Food consumption change rate [1, 61]: 7.69%
Emax, β-arrestin-2 recruitment activity (µ-opioid receptor (MOR)): 1.6%
EC50 (µ-opioid receptor (MOR); read-out: EC50, β-arrestin-2 recruitment activity): > 30 µM
Mild to severe increased activity, starting day (Sprague Dawley (SD) rats; 0.6 mg/kg/day): 7
Mild to severe increased activity, starting day (Sprague Dawley (SD) rats; 1.2 mg/kg/day): 4
Increased muscle tone, incidence (Sprague Dawley (SD) rats; 1.2 mg/kg/day, first 5 days of dosing phase): 33/38
Deep respiration or rale, incidence (Sprague Dawley (SD) rats; 2.4 mg/kg/day): 4/36
Hunchback, incidence (Sprague Dawley (SD) rats; 2.4 mg/kg/day): 1/36
Piloerection, incidence (Sprague Dawley (SD) rats; 2.4 mg/kg/day): 1/36
Found dead (1 male and 1 female) (Sprague Dawley (SD) rats; 2.4 mg/kg/day, Days 3 and 15): 2/30
Decreased activity, incidence (Sprague Dawley (SD) rats; 2.4 mg/kg/day, a few time points during dosing phase): 26/36
Mild to severe increased activity, starting day (Sprague Dawley (SD) rats; 2.4 mg/kg/day): 1
Increased muscle tone, incidence (Sprague Dawley (SD) rats; 2.4 mg/kg/day, mostly complete dosing phase): 36/36
Physical dependence after spontaneous withdrawal (rats): Physical dependence was induced
Withdrawal behaviours reversed to normal, Recovery day (rats): 6
